Test results: US20130273181A1, “METHODS AND COMPOSITIONS FOR DIAGNOSING AND TREATING MUSCLE MYOPATHY DISORDERS” (The Regents of the University of Colorado, a body Corporate, priority 2012, published 2013)
Entries after “also recorded” stand apart in the source; their conditions may differ. Like-named read-outs stand apart in the source and are kept apart here.

How the values were obtained:
[1] = system: Ryr1^m1Nisw/m1Nisw diaphragm muscle; test: Sharp electrode recordings of resting membrane potential of diaphragm muscle; format: cell-based, mouse; details: for resting membrane potential (in words): Glibenclamide 2 μM, AICAR 500 μM; for resting membrane potential (in words) / resting membrane potential after treatment: PMA 50 nM; for resting membrane potential after treatment / shift in membrane potential: sharp electrode; for resting membrane potential after treatment: BaCl2 n=27; for shift in membrane potential: PMA 50 nM vs ethanol, AICAR 500 μM n=18
Procedure: Therefore, in some exemplary methods, whether voltage dependent orthograde signaling through the DHPR-RyR1 complex could be initiated through changes in membrane potential was first assessed.
(§1) In other methods, whether increasing the excitability in E18.5 Ryr1^m1Nisw/m1Nisw whole diaphragm muscle could force the DHPR-RyR1 complex to initiate contractility was examined. In one exemplary method, electromyography recordings (EMG) was performed to examine whether whole muscle in vitro was sensitive to potassium-dependent depolarization by adding potassium to the bath to depolarize the membrane. […] Potassium induced excitability can also be triggered by blocking inward rectifier potassium channels.
(§2) In myotubes, the application of ryanodine at levels that activate RyR increases ERK1/2 protein levels and c-Fos and c-Jun transcript levels. ERK1/2 phosphorylates the most abundant potassium transport protein, Na^+, K^+-ATPase, which, in turn, induces an increase in ion transport. Na^+, K^+-ATPase is essential for maintaining the equilibrium potential of Na^+ and K^+ at the membrane. In one exemplary method, western blot was performed to analyze certain protein levels in Ryr1^m1Nisw/m1Nisw and Ryr1^tm1Alle/tm1Alle embryonic muscle extracts with beta-tubulin served as a loading control. […] In another exemplary method, Phorbol-12-myristate-13-acetate (PMA 50 nM), an activator of ERK1/2 phosphorylation, was applied to the bath of in vitro Ryr1^m1Nisw/m1Nisw diaphragm preparation to increase the phosphorylation of Na^+, K^+-ATPase.
(§3) In certain exemplary methods, restoration of membrane potential and muscle contractions by pharmacological stimulation was tested. First, effect of stimulation of AMPK activity on restoring the resting membrane potential of the mutant diaphragm muscle was determined. An AMPK activator, e.g. 5-aminoimidazole-4-carboxamide-1-β-d-ribofuranoside (AICAR, 500 μM), was bath applied to explanted Ryr1^m1Nisw/m1Nisw E18.5 diaphragm muscles. […] Next, other pharmacological stimuli were examined. […] Glibenclamide (2 μM) and 5-hydrodecanoic acid (5HA, 200 μM) selectively bind to SUR1 and SUR2 to block ATP-sensitive K^+ channels.

[2] = system: Ryr1^m1Nisw/m1Nisw E18.5 diaphragm muscle; test: EMG recordings / contractility of explanted E18.5 diaphragm muscle; format: cell-based, mouse; details: for Minutes to Contraction (Stand. Dev): EMG recordings, electrically stimulated; for Minutes to Contraction (Stand. Dev) / contractions / contractility (in words): PMA 50 nM, AICAR 500 μM; for Minutes to Contraction (Stand. Dev) / contractions / contractility (in words) / bath application time after which contractions were elicited: Glibenclamide 2 μM, 5HA 200 μM; for contractions / contractility (in words): bath application, KCl 6 mM, BaCl2 100 μM, potassium gluconate 6 mM, BayK8644 100 nM; for bath application time after which contractions were elicited / explants showing contractions: n=6 for each; for explants showing contractions: after 1 hour bath application
Procedure: as §1
(§4) DHPR and RyR1 interact through orthograde and retrograde signaling, but the Ryr1^m1Nisw/m1Nisw mutation is not located within this interaction region. Orthograde signaling from DHPR opens the RyR1 channel in the SR, while retrograde signaling from RyR1 controls the gating of DHPR.
(§5) FIG. 2g represents an exemplary graph of contractility of E18.5 diaphragm muscle from Ryr1^+/+, Ryr1^m1Nisw/m1Nisw, or RyR1^tm1Alle/tm1Alle embryos. After equilibration, all samples were bathed first in 6 mM KCl, followed by wash out and then addition of 100 μm BaCl as indicated. […] FIG. 2h provides an exemplary graph of contractility of E18.5 diaphragm muscle from Ryr1^+/+, Ryr1^m1Nisw/m1Nisw and RyR1^tm1Alle/tm1Alle embryos in 6 mM potassium gluconate (n=4).
as §2, §3

[3] = system: Ryr1^tm1Alle/tm1Alle diaphragm muscle; test: Contractility of explanted E18.5 diaphragm muscle, Ryr1 null; format: cell-based, mouse; details: same bath concentrations
Procedure: as §1, §4, §5, §2, §3

soleus muscle = test: Steady-state membrane potential (VREST) of two month old soleus muscle at varied extracellular potassium; format: cell-based, mouse; details: for VREST after drug addition: control 0.6% potassium diet, independent of extracellular potassium
[4] = system: Ryr1^m1Nisw/+ vastus lateralis muscle; test: Muscle histology (H&E central nuclei, COX staining) of vastus lateralis; format: in vivo, mouse; details: after four weeks treatment
Source text: CCD is diagnosed and subclassified by histopathological analysis using stains such as cytochrome oxidase (COX) and nicotinamide adenine dinucleotide hydride-tetrazolium reductase (NADH-TR) which highlight mitochondria and ATP synthesis, and hematoxylin and eosin stain (H&E) to mark nuclei. In normal muscle, nuclei are located at the periphery of the myofiber and the mitochondria reside throughout the myofiber. Muscle biopsies of CCD patients show centrally located nuclei, as well as disorganized areas in the center of the myofiber called cores that lack mitochondria and are devoid of metabolic activity; these occur in some but not all muscles and are reflective of cellular damage.
Pathological examination is the hallmark diagnosis of CCD. In one exemplary method, the effects of diet on muscle histology were studied. Centrally located nuclei and decreased mitochondrial activity were detected in Ryr1^m1Nisw/+ vastus lateralis muscle compared to Ryr1^+/+ muscle in low potassium and control diets (FIGS. 5c-5k). […] In addition, the CCD phenotype was also rescued by 5-hydrodecanoic acid (5HA), which blocks ATP-sensitive K^+ channels (FIG. 4 and Table 2). […]

Ryr1^m1Nisw/+ mice [5] = test: Grip strength test (vertical digital push-pull strain gauge); format: in vivo, mouse; details: 2 month old, four weeks of diet, Enalapril in water, or Glyburide 15 mg/kg/day oral gavage
Ryr1^m1Nisw/+ mice [6] = test: Hanging wire task (upper body muscle strength); format: in vivo, mouse; details: four weeks of diet, Enalapril in water, or Glyburide 15 mg/kg/day oral gavage
[7] = RyR1^m1Nisw/+ soleus muscle, bumetanide 75 μM, BaCl2 50 μM, Glibenclamide 2 μM, or chronic 5.2% potassium diet
[8] = wild type muscle, low extracellular potassium / Tetanus, bumetanide 75 μM, BaCl2 50 μM, Glibenclamide 2 μM
[9] = RyR1^m1Nisw/+ soleus muscle, bumetanide 75 μM, BaCl2 50 μM

## CCCCCCCCCCCCCC(=O)O[C@@H]1[C@@H](C)[C@@]2(O)[C@@H](C=C(CO)C[C@]3(O)C(=O)C(C)=C[C@@H]23)[C@@H]2C(C)(C)[C@]12OC(C)=O [PMA, Phorbol-12-myristate-13-acetate]
[1]
  resting membrane potential (in words): normalized the membrane potential
  resting membrane potential after treatment: −67.7 mV
  shift in membrane potential: −18.3+/−5.3 mV
[2]
  time to contraction after addition: ≤ 5 min
  Minutes to Contraction (Stand. Dev): 4 (2) Minutes
  contractions / contractility (in words): strongly elicited contractions
[3]
  contractions / contractility (in words): no effect

## NC(=O)c1ncn([C@@H]2O[C@H](CO)[C@@H](O)[C@H]2O)c1N [AICAR, 5-aminoimidazole-4-carboxamide-1-β-d-ribofuranoside]
[1]
  resting membrane potential (in words): restore the mutant resting membrane potential to normal levels
  shift in membrane potential: −10.4+/−3.9 mV
[2]
  Minutes to Contraction (Stand. Dev): None
  contractions / contractility (in words): unable to initiate contractions
[3]
  contractions / contractility (in words): unable to initiate contractions

## [Cl-].[K+] [KCl]
[2]
  contractions / contractility (in words): induced bursts of electrical activity and contractions; also recorded: rescued
[3]
  contractions / contractility (in words): failed to contract

## CCCCCC(O)CCCC(=O)O (stereo not shown) [5HA, 5-hydrodecanoic acid]
[2]
  Minutes to Contraction (Stand. Dev): 106 (52) Minutes
  bath application time after which contractions were elicited: 2 h
  explants showing contractions: 50%
  contractions / contractility (in words): rescued

## O=C([O-])[C@H](O)[C@@H](O)[C@H](O)[C@H](O)CO.[K+] [potassium gluconate]
[2]
  contractions / contractility (in words): Contractions also transpired

## COC(=O)C1=C(C)NC(C)=C([N+](=O)[O-])C1c1ccccc1C(F)(F)F (stereo not shown) [BayK8644]
[2]
  contractions / contractility (in words): induced contractions within minutes
[3]
  contractions / contractility (in words): no contractions occurred

## COc1ccc(Cl)cc1C(=O)NCCc1ccc(S(=O)(=O)NC(=O)NC2CCCCC2)cc1 [Glibenclamide]
Soleus muscle; [7]
  VREST phase (in words): rescued the phase 2 VREST to phase 1
Soleus muscle; [8]
  VREST phase (in words): protected against phase 2 shifting from phase 1
[4]; listed as Glyburide
  centrally located nuclei / muscle histology (H&E): lack of centrally-located nuclei; also recorded: rescue the clinical and pathological manifestations of CCD; also recorded: significant reduction in the number of internal nuclei
[1]
  resting membrane potential (in words): normalized the resting membrane potential
Ryr1^m1Nisw/+ mice [5]
  grip strength (in words): Increased grip and hanging strength
[2]
  Minutes to Contraction (Stand. Dev): 67 (34) Minutes
  bath application time after which contractions were elicited: 2 h
  explants showing contractions: 50%
Ryr1^m1Nisw/+ mice [6]
  muscle strength in hanging task (in words): increased grip strength and muscle strength; also recorded: Increased grip and hanging strength

## [Ba+2].[Cl-].[Cl-] [BaCl2]
Soleus muscle
  VREST phase (in words): driven to phase 2
Soleus muscle; [9]
  VREST after drug addition: −91.7+/−3.8 mV
Soleus muscle; [7]
  VREST phase (in words): driven to phase 2
[1]
  resting membrane potential after treatment: −68.5 mV
[2]
  contractions / contractility (in words): induced stimulated bursts of activity and contractions
[2]; listed as BaCl
  contractions / contractility (in words): rescued
[3]; listed as BaCl
  contractions / contractility (in words): failed to contract

## CCCCNc1cc(C(=O)O)cc(S(N)(=O)=O)c1Oc1ccccc1 [bumetanide]
Soleus muscle; [9]
  VREST after drug addition: −92.3+/−4.8 mV
Soleus muscle; [7]
  VREST phase (in words): driven to phase 1
Soleus muscle; [8]
  VREST phase (in words): driven to phase 1

## CCOC(=O)[C@H](CCc1ccccc1)N[C@@H](C)C(=O)N1CCC[C@H]1C(=O)O [Enalapril]
[4]
  centrally located nuclei / muscle histology (H&E): mild improvement in muscle histology
Ryr1^m1Nisw/+ mice [5]
  grip strength (in words): increased grip strength
Ryr1^m1Nisw/+ mice [6]
  muscle strength in hanging task (in words): increased grip strength and muscle strength; also recorded: partial rescue of muscle strength
